In ChEMBL document CHEMBL2074292, “Isolation, characterization and differential gene expression of multispecific organic anion transporter 2 in mice” (Mol Pharmacol, 2002) one finds Activity and Km data, which are given here for 13 molecules.

Data set [1] addresses T1, Solute carrier family 22 member 7 (Mus musculus, UniProt Q91WU2).
T1 sequence (Q91WU2 whole entry): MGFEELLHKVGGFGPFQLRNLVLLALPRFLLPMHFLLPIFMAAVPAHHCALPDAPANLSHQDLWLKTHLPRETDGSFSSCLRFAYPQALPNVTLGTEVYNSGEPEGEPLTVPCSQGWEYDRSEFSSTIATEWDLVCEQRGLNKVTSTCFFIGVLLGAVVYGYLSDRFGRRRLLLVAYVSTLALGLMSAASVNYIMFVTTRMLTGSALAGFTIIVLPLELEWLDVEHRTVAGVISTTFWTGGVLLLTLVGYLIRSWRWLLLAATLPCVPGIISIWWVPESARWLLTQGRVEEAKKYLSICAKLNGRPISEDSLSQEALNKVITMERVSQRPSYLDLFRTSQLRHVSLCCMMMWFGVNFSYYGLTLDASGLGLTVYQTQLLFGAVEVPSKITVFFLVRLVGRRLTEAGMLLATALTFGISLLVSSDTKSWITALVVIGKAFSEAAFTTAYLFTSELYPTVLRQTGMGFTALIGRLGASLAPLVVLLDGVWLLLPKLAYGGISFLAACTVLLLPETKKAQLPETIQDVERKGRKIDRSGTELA
Put plainly: (§1) TP_TRANSPORTER: uptake in Xenopus laevis oocytes. Format: functional, cell-based. The following applies: oocyte.

Data set [2] deals with T1, Solute carrier family 22 member 7. Put plainly: TP_TRANSPORTER: inhibition of Glutarate uptake (Glutarate: 5 uM, ICG: 1000 uM) in Xenopus laevis oocytes. Format: functional, cell-based. As to conditions: oocyte.
Data set [3] has the same target. Put plainly: TP_TRANSPORTER: inhibition of Glutarate uptake (Glutarate: 5 uM, BSP: 250 uM) in Xenopus laevis oocytes. The following applies: oocyte. Format: functional, cell-based.
Data set [4] has the same target. Put plainly: TP_TRANSPORTER: inhibition of Glutarate uptake (Glutarate: 5 uM, Enalapril: 1000 uM) in Xenopus laevis oocytes. It counts as functional, cell-based. As to conditions: oocyte.
Data set [5] shares this target. Put plainly: TP_TRANSPORTER: inhibition of Glutarate uptake (Glutarate: 5 uM, Cefoperazone: 1000 uM) in Xenopus laevis oocytes. Format: functional, cell-based. As to conditions: oocyte.
Data set [6] has the same target. Put plainly: TP_TRANSPORTER: inhibition of Glutarate uptake (Glutarate: 5 uM, Oxaloacetate: 1000 uM) in Xenopus laevis oocytes. The following applies: oocyte. It counts as functional, cell-based.
Data set [7] has the same target. Put plainly: TP_TRANSPORTER: inhibition of Glutarate uptake (Glutarate: 5 uM, Erythromycin: 1000 uM) in Xenopus laevis oocytes. Format: functional, cell-based. As to conditions: oocyte.
Substrate in data set [8]: CCCCC[C@H](O)/C=C/[C@H]1[C@H](O)CC(=O)[C@@H]1C/C=C\CCCC(=O)O
The data set is described as §1. Format: functional, cell-based, Oocyte.

Substrate in data set [9]: O=C(O)CCCC(=O)O
The description is as §1. It counts as functional, cell-based, Oocyte.

As to `Oc1ncnc2[nH]ncc12` [ALLOPURINOL], in [1], the Activity entry was “substrate [+]”.
Take `CC1(C)C(/C=C/C=C/C=C/C=C2/N(CCCCS(=O)(=O)[O-])c3ccc4ccccc4c3C2(C)C)=[N+](CCCCS(=O)(=O)[O-])c2ccc3ccccc3c21.[Na+]` [INDOCYANINE GREEN]: in [2], the Activity result is “inhibitor [(at a rough estimate) 30 % of control]”.
Take `O=C1OC(c2ccc(O)c(S(=O)(=O)[O-])c2)(c2ccc(O)c(S(=O)(=O)[O-])c2)c2c(Br)c(Br)c(Br)c(Br)c21.[Na+].[Na+]` [SULFOBROMOPHTHALEIN SODIUM]: in data set [3], the Activity entry was “inhibitor [(at a rough estimate) 25 % of control]”.
`CCCC(CCC)C(=O)O` [VALPROIC ACID]: in [1], the Activity result is “substrate [+]”.
On to `CCOC(=O)[C@H](CCc1ccccc1)N[C@@H](C)C(=O)N1CCC[C@H]1C(=O)O` [ENALAPRIL], for which, in data set [4], the Activity entry was “inhibitor [(at a rough estimate) 30 % of control]”.
In the case of `C[C@@H]1Cc2c(Cl)cc(C(=O)N[C@@H](Cc3ccccc3)C(=O)O)c(O)c2C(=O)O1` [3R14S-OCHRATOXIN A], the Activity entry in [1] is “substrate [+]”.
On the same count and under the same terms, the result for `O=C(O)CCC(=O)C(=O)O` [ALPHA-KETOGLUTARIC ACID] reads “substrate [+]”; that for `O=C(O)c1ccccc1O` [SALICYLIC ACID], “is not a substrate [-]”.
As to `CCN1CCN(C(=O)N[C@@H](C(=O)N[C@@H]2C(=O)N3C(C(=O)O)=C(CSc4nnnn4C)CS[C@H]23)c2ccc(O)cc2)C(=O)C1=O` [CEFOPERAZONE], the Activity result in data set [5] was “inhibitor [(at a rough estimate) 40 % of control]”.
In the case of `O=C(O)CC(=O)C(=O)O` [OXALOACETATE], the Activity entry in data set [6] is “inhibitor [(at a rough estimate) 45 % of control]”.
As to `CC[C@H]1OC(=O)[C@H](C)[C@@H](O[C@H]2C[C@@](C)(OC)[C@@H](O)[C@H](C)O2)[C@H](C)[C@@H](O[C@@H]2O[C@H](C)C[C@H](N(C)C)[C@H]2O)[C@](C)(O)C[C@@H](C)C(=O)[C@H](C)[C@@H](O)[C@]1(C)O` [ERYTHROMYCIN], in [7], the Activity entry was “inhibitor [(at a rough estimate) 20 % of control]”.
Turning to `Nc1ccc(C(=O)NCC(=O)O)cc1` [AMINOHIPPURIC ACID], the Activity result in data set [1] is “substrate [+]”.

B1: Solute carrier family 22 member 7 (Mus musculus) (protein)
chain: T1 sequence (Q91WU2 whole entry)
One may read the Km as the concentration of substrate that gives half-maximal velocity. Regarding B1, the values for the Km in data set [8] and in data set [9] were 0.0052 µM and 15.8 µM, respectively.
